This is an account of results in ChEMBL document CHEMBL1139487, “Discovery of corticotropin releasing factor 2 receptor selective sauvagine analogues for treatment of skeletal muscle atrophy” (J Med Chem, 2005).

Assay [1] deals with Mus musculus. Kind of assay: In vivo percentage inhibition against casting induced tibialis anterior mass loss in mouse at a dosage of 10 ug/kg/day. The class given is functional.
Assay [2] deals with Mus musculus. Briefly: In vivo percentage inhibition against casting induced tibialis anterior mass loss in mouse at a dosage of 30 ug/kg/day. It counts as functional.
Assay [3] is filed under the species Mus musculus. Briefly: Selectivity ratio of EC50s for mouse corticotropin releasing factor receptors 1 and 2.
Assay [4] has as its target Corticotropin-releasing factor receptor 2 (Mus musculus) (UniProt Q60748). Briefly: In vitro agonistic activity against mouse corticotropin releasing factor 2 receptor. It counts as functional.
Assay [5] has as its system Mus musculus. Briefly: In vivo percentage inhibition against casting induced tibialis anterior mass loss in mouse at a dosage of 100 ug/kg/day. The class given is functional.
In assay [6] the target is Corticotropin-releasing factor receptor 2 (Mus musculus, UniProt Q60748). Kind of assay: In vitro effective concentration for mouse corticotropin releasing factor 2 receptor.
The target of assay [7] is T1, Corticotropin-releasing factor receptor 1 (Mus musculus, UniProt P35347).
T1 sequence (P35347 whole entry): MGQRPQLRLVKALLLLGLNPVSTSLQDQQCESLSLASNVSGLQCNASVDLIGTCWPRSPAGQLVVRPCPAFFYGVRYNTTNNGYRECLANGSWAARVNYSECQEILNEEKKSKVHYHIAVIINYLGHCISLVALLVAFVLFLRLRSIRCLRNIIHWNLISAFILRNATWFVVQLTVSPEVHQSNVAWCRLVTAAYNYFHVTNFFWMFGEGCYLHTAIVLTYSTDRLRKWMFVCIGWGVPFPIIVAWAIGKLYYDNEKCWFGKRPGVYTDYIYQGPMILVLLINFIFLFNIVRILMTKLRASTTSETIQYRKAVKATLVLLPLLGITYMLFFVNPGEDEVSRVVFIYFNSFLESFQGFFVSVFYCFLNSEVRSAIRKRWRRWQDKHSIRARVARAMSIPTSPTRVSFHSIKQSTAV
Briefly: In vitro effective concentration for mouse corticotropin releasing factor 1 receptor.

The target in assay [8] is T2, Corticotropin-releasing factor receptor 1 (Mus musculus) (UniProt P35347).
T2 sequence (whole entry): T1 sequence (P35347 whole entry)
Briefly: In vitro agonistic activity against mouse corticotropin releasing factor 1 receptor. The class given is functional.

The test system of assay [9] is Mus musculus. Kind of assay: In vivo percentage inhibition against casting induced tibialis anterior mass loss in mouse at a dosage of 300 ug/kg/day. The class given is functional. The note with it: read-out: Inhibition.

Sequence of Corticotropin-releasing factor receptor 2 (Mus musculus) (Q60748 whole entry): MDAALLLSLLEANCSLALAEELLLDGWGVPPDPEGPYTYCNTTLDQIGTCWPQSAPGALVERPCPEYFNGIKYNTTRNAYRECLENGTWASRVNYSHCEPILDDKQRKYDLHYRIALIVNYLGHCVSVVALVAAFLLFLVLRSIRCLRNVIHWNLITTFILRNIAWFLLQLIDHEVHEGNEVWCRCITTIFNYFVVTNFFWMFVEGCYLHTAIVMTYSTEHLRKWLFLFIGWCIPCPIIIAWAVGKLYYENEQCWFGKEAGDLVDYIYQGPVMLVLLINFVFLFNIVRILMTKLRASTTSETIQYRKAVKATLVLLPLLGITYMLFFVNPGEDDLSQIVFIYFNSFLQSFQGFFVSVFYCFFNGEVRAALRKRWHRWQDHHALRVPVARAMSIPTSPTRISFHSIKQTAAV
Sequence of Corticotropin-releasing factor receptor 2 (Q60748 whole entry): as above

The molecule `CC[C@H](C)[C@H](NC(=O)[C@@H](NC(=O)[C@H](CC(=O)O)NC(=O)[C@H](CC(C)C)NC(=O)[C@H](CC(C)C)NC(=O)[C@H](CC(C)C)NC(=O)[C@H](CCCN=C(N)N)NC(=O)[C@H](CC(N)=O)NC(=O)[C@H](CC(N)=O)NC(=O)[C@H](C)NC(=O)[C@H](C)NC(=O)[C@H](CCC(N)=O)NC(=O)[C@H](CCC(N)=O)NC(=O)[C@H](CCCCN)NC(=O)[C@H](CCC(=O)O)NC(=O)[C@H](CCCCN)NC(=O)[C@H](CCC(=O)O)NC(=O)[C@H](CCC(N)=O)NC(=O)[C@H](CCCCN)NC(=O)[C@H](CCC(=O)O)NC(=O)[C@@H](NC(=O)[C@H](CCC(=O)O)NC(=O)[C@@H](NC(=O)[C@H](CCSC)NC(=O)[C@H](CCCCN)NC(=O)[C@H](CCCN=C(N)N)NC(=O)[C@H](CC(C)C)NC(=O)[C@H](CC(C)C)NC(=O)[C@H](CC(C)C)NC(=O)[C@@H](NC(=O)[C@@H]1CCCN1C(=O)[C@H](CC(C)C)NC(=O)[C@H](CC(=O)O)NC(=O)[C@@H](NC(=O)[C@H](CO)NC(=O)[C@@H](NC(=O)[C@@H]1CCCN1C(=O)[C@@H]1CCCN1C(=O)CNC(=O)[C@@H]1CCC(=O)N1)[C@@H](C)CC)[C@@H](C)CC)[C@@H](C)CC)[C@@H](C)CC)[C@@H](C)CC)[C@@H](C)O)C(=O)O` gave an inhibition in vivo at 0.01 mg/kg/day in the assay with Mus musculus [1] of 10%. Moreover, the inhibition in vivo at 0.03 mg/kg/day in the assay with Mus musculus [2] was 66%. The Selectivity in the assay filed under Mus musculus [3] is above 64. The Emax in assay [4] was 88%; in assay [8], 72%. Moreover, the inhibition in vivo at 0.1 mg/kg/day with Mus musculus [5] was determined as 91%. In addition, the results for the EC50 in assay [6] and in [7] were 15.6 nM and above 1000 nM, respectively.

In the assay on Mus musculus [2], `CC[C@H](C)[C@H](NC(=O)[C@@H](NC(=O)[C@H](CC(=O)O)NC(=O)[C@H](CC(C)C)NC(=O)[C@H](CC(C)C)NC(=O)[C@H](CC(C)C)NC(=O)[C@H](CCCN=C(N)N)NC(=O)[C@H](CC(N)=O)NC(=O)[C@H](CC(N)=O)NC(=O)[C@H](C)NC(=O)[C@H](C)NC(=O)[C@H](CCC(N)=O)NC(=O)[C@H](CCC(N)=O)NC(=O)[C@H](CCCCN)NC(=O)[C@H](CCC(=O)O)NC(=O)[C@H](CCCCN)NC(=O)[C@H](CCC(=O)O)NC(=O)[C@H](CCC(N)=O)NC(=O)[C@H](CCCCN)NC(=O)[C@H](CCC(=O)O)NC(=O)[C@@H](NC(=O)[C@H](CCC(=O)O)NC(=O)[C@@H](NC(=O)[C@H](CCSC)NC(=O)[C@H](CCCCN)NC(=O)[C@H](CCCN=C(N)N)NC(=O)[C@H](CC(C)C)NC(=O)[C@H](CC(C)C)NC(=O)[C@H](Cc1ccc(O)cc1)NC(=O)[C@@H](NC(=O)[C@@H]1CCCN1C(=O)[C@H](CC(C)C)NC(=O)[C@H](CC(=O)O)NC(=O)[C@@H](NC(=O)[C@H](CO)NC(=O)[C@@H](NC(=O)[C@@H]1CCCN1C(=O)[C@@H]1CCCN1C(=O)CNC(=O)[C@@H]1CCC(=O)N1)[C@@H](C)CC)[C@@H](C)CC)[C@@H](C)O)[C@@H](C)CC)[C@@H](C)CC)[C@@H](C)O)C(=O)O` showed an inhibition in vivo at 0.03 mg/kg/day of 3%. For the same molecule, the Selectivity in the assay filed under Mus musculus [3] was above 55. Further, the values for the Emax in [4] and in assay [8] were 82% and 48%, respectively. Moreover, in the assay on Mus musculus [5], the inhibition in vivo at 0.1 mg/kg/day is 25%. The results for the EC50 in assay [6] and in [7] were 18.2 nM and above 1000 nM, respectively. Besides, the inhibition in vivo at 0.3 mg/kg/day in the assay on Mus musculus [9] was determined as 59%.

With `CC[C@H](C)[C@H](NC(=O)[C@@H](NC(=O)[C@H](CC(=O)O)NC(=O)[C@H](CC(C)C)NC(=O)[C@H](CC(C)C)NC(=O)[C@H](CC(C)C)NC(=O)[C@H](CCCN=C(N)N)NC(=O)[C@H](CC(N)=O)NC(=O)[C@H](CC(N)=O)NC(=O)[C@H](C)NC(=O)[C@H](C)NC(=O)[C@H](CCC(N)=O)NC(=O)[C@H](CCC(N)=O)NC(=O)[C@H](CCCCN)NC(=O)[C@H](CCC(=O)O)NC(=O)[C@H](CCCCN)NC(=O)[C@H](CCC(=O)O)NC(=O)[C@H](CCC(N)=O)NC(=O)[C@H](CCCCN)NC(=O)[C@H](CCC(=O)O)NC(=O)[C@@H](NC(=O)[C@H](CCC(=O)O)NC(=O)[C@@H](NC(=O)[C@H](CCSC)NC(=O)[C@H](CCCCN)NC(=O)[C@H](CCCN=C(N)N)NC(=O)[C@H](CC(C)C)NC(=O)[C@H](CC(C)C)NC(=O)[C@H](Cc1ccc(O)cc1)NC(=O)[C@@H](NC(=O)[C@@H]1CCCN1C(=O)[C@H](CC(C)C)NC(=O)[C@H](CC(=O)O)NC(=O)[C@@H](NC(=O)[C@H](CO)NC(=O)[C@@H](NC(=O)[C@@H]1CCCN1C(=O)[C@@H]1CCCN1C(=O)CNC(=O)[C@@H]1CCC(=O)N1)[C@@H](C)CC)[C@@H](C)CC)[C@@H](C)CC)[C@@H](C)CC)[C@@H](C)CC)[C@@H](C)O)C(=O)O`, in the assay on Mus musculus [2], the inhibition in vivo at 0.03 mg/kg/day was found to be 24%. The Selectivity in the assay listed under Mus musculus [3] is above 45. In addition, the Emax in [4] was found to be 100%; in assay [8], 8%. The same molecule had an inhibition in vivo at 0.1 mg/kg/day in the assay on Mus musculus [5] of 38%. Besides, the inhibition in vivo at 0.3 mg/kg/day in the assay on Mus musculus [9] is 58%.

In the case of `CC[C@H](C)[C@H](NC(=O)[C@@H](NC(=O)[C@H](CC(=O)O)NC(=O)[C@H](CC(C)C)NC(=O)[C@H](CC(C)C)NC(=O)[C@H](CC(C)C)NC(=O)[C@H](CCCN=C(N)N)NC(=O)[C@H](CC(N)=O)NC(=O)[C@H](CC(N)=O)NC(=O)[C@H](C)NC(=O)[C@H](C)NC(=O)[C@H](CCC(N)=O)NC(=O)[C@H](CCC(N)=O)NC(=O)[C@H](CCCCN)NC(=O)[C@H](CCC(=O)O)NC(=O)[C@H](CCCCN)NC(=O)[C@H](CCC(=O)O)NC(=O)[C@H](CCC(N)=O)NC(=O)[C@H](CCCCN)NC(=O)[C@H](CCC(=O)O)NC(=O)[C@@H](NC(=O)[C@H](CCC(=O)O)NC(=O)[C@@H](NC(=O)[C@H](CCSC)NC(=O)[C@H](CCCCN)NC(=O)[C@H](CCCN=C(N)N)NC(=O)[C@H](CC(C)C)NC(=O)[C@H](CC(C)C)NC(=O)[C@H](Cc1c[nH]c2ccccc12)NC(=O)[C@@H](NC(=O)[C@@H]1CCCN1C(=O)[C@H](CC(C)C)NC(=O)[C@H](CC(=O)O)NC(=O)[C@@H](NC(=O)[C@H](CO)NC(=O)[C@@H](NC(=O)[C@@H]1CCCN1C(=O)[C@@H]1CCCN1C(=O)CNC(=O)[C@@H]1CCC(=O)N1)[C@@H](C)CC)[C@@H](C)CC)[C@@H](C)O)[C@@H](C)CC)[C@@H](C)CC)[C@@H](C)O)C(=O)O`, the inhibition in vivo at 0.01 mg/kg/day in the assay on Mus musculus [1] is 30%. In addition, the inhibition in vivo at 0.03 mg/kg/day in the assay on Mus musculus [2] worked out at 84%. Moreover, the Selectivity in the assay listed under Mus musculus [3] is above 66. Also, the results for the Emax in [4] and in assay [8] were 100% and 43%, respectively. Further, the inhibition in vivo at 0.1 mg/kg/day with Mus musculus [5] is 91%. Moreover, the 50% effective concentration (EC50) in [6] is 15.2 nM; in assay [7] it was above 1000 nM.

`CC[C@H](C)[C@H](NC(=O)[C@@H](NC(=O)[C@H](CC(=O)O)NC(=O)[C@H](CC(C)C)NC(=O)[C@H](CC(C)C)NC(=O)[C@H](CC(C)C)NC(=O)[C@H](CCCN=C(N)N)NC(=O)[C@H](CC(N)=O)NC(=O)[C@H](CC(N)=O)NC(=O)[C@H](C)NC(=O)[C@H](C)NC(=O)[C@H](CCC(N)=O)NC(=O)[C@H](CCC(N)=O)NC(=O)[C@H](CCCCN)NC(=O)[C@H](CCC(=O)O)NC(=O)[C@H](CCCCN)NC(=O)[C@H](CCC(=O)O)NC(=O)[C@H](CCC(N)=O)NC(=O)[C@H](CCCCN)NC(=O)[C@H](CCC(=O)O)NC(=O)[C@@H](NC(=O)[C@H](CCC(=O)O)NC(=O)[C@@H](NC(=O)[C@H](CCSC)NC(=O)[C@H](CCCCN)NC(=O)[C@H](CCCN=C(N)N)NC(=O)[C@H](CC(C)C)NC(=O)[C@H](CC(C)C)NC(=O)[C@H](CCC(N)=O)NC(=O)[C@H](Cc1ccccc1)NC(=O)[C@@H]1CCCN1C(=O)[C@H](CC(C)C)NC(=O)[C@H](CC(=O)O)NC(=O)[C@@H](NC(=O)[C@H](CO)NC(=O)[C@@H](NC(=O)[C@@H]1CCCN1C(=O)[C@@H]1CCCN1C(=O)CNC(=O)[C@@H]1CCC(=O)N1)[C@@H](C)CC)[C@@H](C)CC)[C@@H](C)CC)[C@@H](C)CC)[C@@H](C)O)C(=O)O` returned an inhibition in vivo at 0.03 mg/kg/day with Mus musculus [2] of 58%. Further, the Selectivity in the assay listed under Mus musculus [3] came to 62. For the same molecule, the maximal response (Emax) in assay [4] is 100%; in [8] it was 64%. The molecule further returned an inhibition in vivo at 0.1 mg/kg/day in the assay on Mus musculus [5] of 46%. In addition, the inhibition in vivo at 0.3 mg/kg/day with Mus musculus [9] is 50%.

A word on the Emax: it is the maximal effect, on the per cent scale that the assay sets. One may read the EC50 as the concentration that produces a half-maximal response. Low readings indicate a more potent agent, high ones a less potent agent.
